PMC9034499, “RORγt agonist enhances anti-PD-1 therapy by promoting monocyte-derived dendritic cells through CXCL10 in cancers” (Journal of Experimental & Clinical Cancer Research : CR, 2022)

Key:
[1] = biological target: T1, RORγt LBD protein (Homo sapiens, UniProt P51449); experiment: Biacore binding to RORγt LBD protein; details: RORγt protein immobilized on CM5 chip
T1 construct: RORγt (residues 263–509)-GGG-SRC1; GGG linker + SRC1 peptide (C); His-tag (inferred from pET28a and nickel purification); made in house; host or cells: E. coli strain DE3, pET28a
T1 sequence (P51449 263-509): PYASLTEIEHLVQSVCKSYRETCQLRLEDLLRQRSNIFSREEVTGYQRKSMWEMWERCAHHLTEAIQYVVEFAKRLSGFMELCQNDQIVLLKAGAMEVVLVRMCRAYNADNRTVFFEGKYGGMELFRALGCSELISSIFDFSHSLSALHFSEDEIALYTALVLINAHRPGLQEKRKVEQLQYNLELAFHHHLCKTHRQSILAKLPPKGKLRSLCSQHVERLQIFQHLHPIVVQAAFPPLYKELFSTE
Source text: Human nuclear receptor RORγt (residues 263–509)-GGG-SRC1 (SRC1 sequence: EKHKILHRLLQDS, Sangon Biotech, Shanghai). RORγt LBD was cloned in pET28a. Key residue mutations of RORγt LBD (such as PHE388, LEU391, CYS393, LEU396, ILE397, ILE400, CYS320, ALA321, LEU324, MET358, and PHE388) with LYC-55716 were cloned in pET28a. Key residue mutations of RORγt LBD (MET365, ALA368, PHE401, ILE400, ILE397, LEU396, TRP317, CYS320, LEU324, ALA327, TYR330, VAL331, MET358, and VAL361) with 8-074 were cloned in pET28a. The proteins were expressed in E. coli strain DE3. Then, the transformed E. coli culture was grown at 37 °C with 30 μg/mL Kanamycin LB (Luria–Bertani). When the OD600 of LB medium reached 0.6, the temperature was changed to 16 °C, and isopropyl-β-D-thiogalactopyranoside (IPTG, Beyotime, Shanghai, China) was added at a final concentration of 0.4 mM to induce protein expression for 16 h. After 16 h, the pellet was collected after centrifugation at 4,000 rpm for 15 min at 4 °C. […]
The RORγt protein was immobilized on a CM5 chip (GE Health, Chicago, USA) using Biaocre 8 K. A sensogram was obtained using different serial concentrations of 8-074 (5000 nM, 2500 nM, 1250 nM, 625 nM, 312.5 nM, 156.25 nM, 78.125 nM, and 39.0625 nM). […] Data were analyzed using Biacore Evaluation Software.

[2] = biological target: T2, RORα (Homo sapiens, UniProt P35398); experiment: RORα Gal4 reporter gene assay; type: cell-based
T2 construct: expressed in transfected cells
T2 sequence (P35398 1-523): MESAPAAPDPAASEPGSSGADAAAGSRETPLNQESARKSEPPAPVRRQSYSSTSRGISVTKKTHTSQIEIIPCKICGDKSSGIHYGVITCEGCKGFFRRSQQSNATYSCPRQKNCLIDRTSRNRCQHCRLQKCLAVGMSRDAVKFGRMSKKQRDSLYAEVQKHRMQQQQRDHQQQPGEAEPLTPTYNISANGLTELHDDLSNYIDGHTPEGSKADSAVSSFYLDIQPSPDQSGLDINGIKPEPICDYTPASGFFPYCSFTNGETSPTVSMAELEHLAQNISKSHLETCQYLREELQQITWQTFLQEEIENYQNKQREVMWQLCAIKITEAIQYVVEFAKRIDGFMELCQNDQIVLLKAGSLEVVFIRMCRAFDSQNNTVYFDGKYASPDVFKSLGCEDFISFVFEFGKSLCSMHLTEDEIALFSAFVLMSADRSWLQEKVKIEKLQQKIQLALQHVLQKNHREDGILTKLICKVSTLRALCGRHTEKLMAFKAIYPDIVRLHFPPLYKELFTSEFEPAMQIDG

Kd [1]: 497 nM
EC50 [2]: > 10000 nM
SMILES: CCS(=O)(=O)c1ccc(CC(=O)Nc2ccc(-c3ccc(CC(C)C)c(C#N)c3)c(C(F)(F)F)c2)cc1 [8-074]
